Assay results taken from ChEMBL document CHEMBL1122399, “Synthesis and antibacterial activities of new (alpha-hydrazinobenzyl)cephalosporins” (1983).
Converted amounts (≈) assume the structure as drawn.

Tests used:
Type in all cases: functional
[1] = In vitro antibacterial activity was determined by 2 fold serial agar dilution method in gram positive resistant bacteria
[2] = In vitro antibacterial activity was determined by 2 fold serial agar dilution method with multilocular device in gram positive bacteria
Bacteria [3] = test: In vitro antibacterial activity was determined by 2 fold serial agar dilution method with multilocular device in gram negative bacteria
Bacteria [4] = test: In vitro antibacterial activity was determined by 2 fold serial agar dilution method in gram negative resistant bacteria

| Compound | MIC [1] [µg/mL] | MIC [2] [µg/mL] | MIC (Bacteria [3]) [µg/mL] | MIC (Bacteria [4]) [µg/mL] |
| --- | --- | --- | --- | --- |
| CC(=O)OCC1=C(C(=O)O)N2C(=O)[C@@H](NC(=O)[C@H](N)c3ccccc3)[C@H]2SC1 [CEPHALOGLYCIN] | 19.8 (≈ 48.8 µM) | 1.33 (≈ 3.28 µM) | 8.5 (≈ 21 µM) | 79.3 (≈ 196 µM) |
| CC(=O)OCC1=C(C(=O)O)N2C(=O)[C@@H](NC(=O)C(NN)c3ccccc3)C2SC1 (stereo partly specified) | 31.5 (≈ 74.9 µM) | 1.68 (≈ 4 µM) | 73.4 (≈ 175 µM) | > 100 |
| NNC(C(=O)N[C@@H]1C(=O)N2C(C(=O)O)=C(Cl)CSC12)c1ccccc1 (stereo partly specified) | 31.4 (≈ 82 µM) | 1.33 (≈ 3.47 µM) | 21.4 (≈ 55.9 µM) | 50 (≈ 131 µM) |
| CC1=C(C(=O)O)N2C(=O)[C@@H](NC(=O)[C@H](N)c3ccccc3)[C@H]2SC1 [CEPHALEXIN ANHYDROUS] | 24.9 (≈ 71.7 µM) | 0.58 (≈ 1.67 µM) | 5.7 (≈ 16.4 µM) | 7.8 (≈ 22.5 µM) |
| CC(=O)OCC1=C(C(=O)O)N2C(=O)[C@@H](NC(=O)C(c3ccccc3)N(C)N)C2SC1 (stereo partly specified) | 24.9 (≈ 57.3 µM) | 1.33 (≈ 3.06 µM) | 54.5 (≈ 125 µM) | > 100 |
| CC1=C(C(=O)O)N2C(=O)[C@@H](NC(=O)C(c3ccccc3)N(C)N)C2SC1 (stereo partly specified) | 50 (≈ 133 µM) | 6.74 (≈ 17.9 µM) | 100 (≈ 266 µM) | > 100 |
| N[C@@H](C(=O)N[C@@H]1C(=O)N2C(C(=O)O)=C(Cl)CS[C@H]12)c1ccccc1 [CEFACLOR ANHYDROUS] | 15.7 (≈ 42.7 µM) | 0.16 (≈ 0.435 µM) | 1 (≈ 2.72 µM) | 7.8 (≈ 21.2 µM) |
| CC1=C(C(=O)O)N2C(=O)[C@@H](NC(=O)C(NN)c3ccccc3)C2SC1 (stereo partly specified) | 62.9 (≈ 174 µM) | 12.5 (≈ 34.5 µM) | > 100 | – |
